Source: PubChem BioAssay AID1259407 (Chemical Carcinogenesis Research Information System (CCRIS), 2018)
Activity calls are given as the source filed them. The rule behind the calls is not given here.

Test system: CCRIS mutagenicity, Ames/micronucleus/aberration tests
Test: CCRIS mutagenicity studies
[1] = Test System: AMES SALMONELLA TYPHIMURIUM, Strain/Indicator: TA98, Metabolic Activation: NONE, Method: STANDARD PLATE
[2] = Test System: AMES SALMONELLA TYPHIMURIUM, Strain/Indicator: TA100, Metabolic Activation: NONE, Method: STANDARD PLATE

C=C(Cl)Cl
mutagenic call (End Point: IN VITRO CHROMOSOMAL ABERRATIONS, Test System: CHINESE HAMSTER LUNG (CHL), Metabolic Activation: NONE): inactive; negative
mutagenic call (End Point: IN VITRO CHROMOSOMAL ABERRATIONS, Test System: CHINESE HAMSTER LUNG (CHL), Metabolic Activation: RAT. LIVER, S-9, KC-400): active; positive
mutagenic call (End Point: IN VIVO MICRONUCLEUS, Test System: BONE MARROW POLYCHROMATIC ERYTHROCYTES, Species: MOUSE, Strain/Sex: DDY/MALE, Route: GAVAGE (ORAL) ONCE): inactive; negative
mutagenic call (End Point: IN VIVO MICRONUCLEUS, Test System: BONE MARROW POLYCHROMATIC ERYTHROCYTES, Species: MOUSE, Strain/Sex: DDY/MALE, Route: GAVAGE (ORAL), 4 DOSES AT 24 HR INTERVALS): inactive; negative
mutagenic call (End Point: IN VIVO MICRONUCLEUS, Test System: MICRONUCLEATED POLYCHROMATIC ERYTHROCYTES, Species: MOUSE, Strain/Sex: ICR/FEMALE (PREGNANT), Route: IP INJECTION ON 18 D OF GESTATION): inactive; negative
mutagenic call (Test System: AMES SALMONELLA TYPHIMURIUM, Strain/Indicator: RSJ100, Metabolic Activation: NONE, Method: VAPOR PHASE): inactive; negative
mutagenic call (Test System: AMES SALMONELLA TYPHIMURIUM, Strain/Indicator: TA97, Metabolic Activation: NONE, Method: STANDARD PLATE): inactive; negative
mutagenic call (Test System: AMES SALMONELLA TYPHIMURIUM, Strain/Indicator: TA97, Metabolic Activation: RAT, LIVER, S-9, AROCLOR 1254, Method: STANDARD PLATE): active; positive
mutagenic call [1]: inactive; negative
mutagenic call (Test System: AMES SALMONELLA TYPHIMURIUM, Strain/Indicator: TA98, Metabolic Activation: RAT, LIVER, S-9, AROCLOR 1254, Method: STANDARD PLATE): active; positive
mutagenic call (Test System: AMES SALMONELLA TYPHIMURIUM, Strain/Indicator: TA98, Metabolic Activation: RAT, LIVER, S-9, PCB, Method: GAS EXPOSURE): inactive; negative
mutagenic call (Test System: AMES SALMONELLA TYPHIMURIUM, Strain/Indicator: TA100, Metabolic Activation: MOUSE, LIVER, S-9, PHENOBARBITAL, Method: DESICCATOR): active; positive
mutagenic call [2]: active; positive
mutagenic call (Test System: AMES SALMONELLA TYPHIMURIUM, Strain/Indicator: TA100, Metabolic Activation: RAT, LIVER, S-9, AROCLOR 1254, Method: DESICCATOR): active; positive
mutagenic call (Test System: AMES SALMONELLA TYPHIMURIUM, Strain/Indicator: TA100, Metabolic Activation: RAT, LIVER, S-9, AROCLOR 1254, Method: STANDARD PLATE): active; positive
mutagenic call (Test System: AMES SALMONELLA TYPHIMURIUM, Strain/Indicator: TA100, Metabolic Activation: RAT, LIVER, S-9, PCB, Method: GAS EXPOSURE): active; positive
mutagenic call (Test System: AMES SALMONELLA TYPHIMURIUM, Strain/Indicator: TA100, Metabolic Activation: RAT, LIVER, S-9, PHENOBARBITAL, Method: DESICCATOR): active; positive
mutagenic call (Test System: AMES SALMONELLA TYPHIMURIUM, Strain/Indicator: TA104, Metabolic Activation: NONE, Method: STANDARD PLATE): inactive; negative
mutagenic call (Test System: AMES SALMONELLA TYPHIMURIUM, Strain/Indicator: TA104, Metabolic Activation: RAT, LIVER, S-9, AROCLOR 1254, Method: STANDARD PLATE): inactive; negative
mutagenic call (Test System: AMES SALMONELLA TYPHIMURIUM, Strain/Indicator: TA1530, Metabolic Activation: MOUSE, LIVER, S-9, PHENOBARBITAL, Method: DESICCATOR): active; positive
mutagenic call (Test System: AMES SALMONELLA TYPHIMURIUM, Strain/Indicator: TA1535, Metabolic Activation: HAMSTER, LIVER, S-9, AROCLOR 1254, Method: DESICCATOR): active; positive
mutagenic call (Test System: AMES SALMONELLA TYPHIMURIUM, Strain/Indicator: TA1535, Metabolic Activation: MOUSE, KIDNEY, S-9, Method: DESICCATOR): active; positive
mutagenic call (Test System: AMES SALMONELLA TYPHIMURIUM, Strain/Indicator: TA1535, Metabolic Activation: MOUSE, LIVER, S-9, AROCLOR 1254, Method: DESICCATOR): active; positive
mutagenic call (Test System: AMES SALMONELLA TYPHIMURIUM, Strain/Indicator: TA1535, Metabolic Activation: RAT, LIVER, S-9, AROCLOR 1254, Method: DESICCATOR): active; positive
mutagenic call (Test System: AMES SALMONELLA TYPHIMURIUM, Strain/Indicator: TA1535, Metabolic Activation: RAT, LIVER, S-9, PCB, Method: GAS EXPOSURE): active; positive
mutagenic call (Test System: AMES SALMONELLA TYPHIMURIUM, Strain/Indicator: TA1535, Metabolic Activation: RAT, LIVER, S-9, PHENOBARBITAL, Method: DESICCATOR): active; positive
mutagenic call (Test System: AMES SALMONELLA TYPHIMURIUM, Strain/Indicator: TA1537, Metabolic Activation: RAT, LIVER, S-9, PCB, Method: GAS EXPOSURE): inactive; negative
mutagenic call (Test System: AMES SALMONELLA TYPHIMURIUM, Strain/Indicator: TA1538, Metabolic Activation: RAT, LIVER, S-9, PCB, Method: GAS EXPOSURE): inactive; negative
mutagenic call (Test System: AMES SALMONELLA TYPHIMURIUM, Strain/Indicator: TA2637, Metabolic Activation: RAT, LIVER, S-9, PCB, Method: GAS EXPOSURE): inactive; negative
mutagenic call (Test System: AMES SALMONELLA TYPHIMURIUM, Strain/Indicator: TPT100, Metabolic Activation: NONE, Method: VAPOR PHASE): active; positive
mutagenic call (Test System: E. COLI, Strain/Indicator: WP2 UVRA (PKM101), Metabolic Activation: RAT, LIVER, S-9, PCB, Method: GAS EXPOSURE): active; positive
mutagenic call (Test System: E. COLI, Strain/Indicator: WP2 UVRA, Metabolic Activation: RAT, LIVER, S-9, PCB, Method: GAS EXPOSURE): active; positive
mutagenic call (Test System: MOUSE LYMPHOMA, Strain/Indicator: L5178Y (TK+/TK-), Metabolic Activation: NONE, Method: SUSPENSION/PLATE): inactive; negative
mutagenic call (Test System: MOUSE LYMPHOMA, Strain/Indicator: L5178Y (TK+/TK-), Metabolic Activation: RAT, LIVER, S-9, Method: SUSPENSION/PLATE): active; positive

CC1(C)CC(N)CC(C)(C)N1[O]
mutagenic call [1]: active; positive
mutagenic call (Test System: AMES SALMONELLA TYPHIMURIUM, Strain/Indicator: TA98, Metabolic Activation: RAT LIVER S-9, PCB, Method: STANDARD PLATE): inactive; negative
mutagenic call [2]: active; positive
mutagenic call (Test System: AMES SALMONELLA TYPHIMURIUM, Strain/Indicator: TA100, Metabolic Activation: RAT LIVER S-9, PCB, Method: STANDARD PLATE): inactive; negative
mutagenic call (Test System: AMES SALMONELLA TYPHIMURIUM, Strain/Indicator: TA102, Metabolic Activation: NONE, Method: STANDARD PLATE): inactive; negative

C=CCC1(C(C)C#CCC)C(=O)N=C(O)N(C)C1=O (stereo unspecified)
mutagenic call (Test System: AMES SALMONELLA TYPHIMURIUM, Strain/Indicator: TA97, Metabolic Activation: HAMSTER, LIVER, S-9, AROCLOR 1254 (10 OR 30%), Method: PREINCUBATION): inactive; negative
mutagenic call (Test System: AMES SALMONELLA TYPHIMURIUM, Strain/Indicator: TA97, Metabolic Activation: NONE, Method: PREINCUBATION): inactive; negative
mutagenic call (Test System: AMES SALMONELLA TYPHIMURIUM, Strain/Indicator: TA97, Metabolic Activation: RAT, LIVER, S-9, AROCLOR 1254 (10 OR 30%), Method: PREINCUBATION): inactive; negative
mutagenic call (Test System: AMES SALMONELLA TYPHIMURIUM, Strain/Indicator: TA98, Metabolic Activation: HAMSTER, LIVER, S-9, AROCLOR 1254 (10 OR 30%), Method: PREINCUBATION): inactive; negative
mutagenic call (Test System: AMES SALMONELLA TYPHIMURIUM, Strain/Indicator: TA98, Metabolic Activation: NONE, Method: PREINCUBATION): inactive; negative
mutagenic call (Test System: AMES SALMONELLA TYPHIMURIUM, Strain/Indicator: TA98, Metabolic Activation: RAT, LIVER, S-9, AROCLOR 1254 (10 OR 30%), Method: PREINCUBATION): inactive; negative
mutagenic call (Test System: AMES SALMONELLA TYPHIMURIUM, Strain/Indicator: TA100, Metabolic Activation: HAMSTER, LIVER, S-9, AROCLOR 1254 (10 OR 30%), Method: PREINCUBATION): inactive; negative
mutagenic call (Test System: AMES SALMONELLA TYPHIMURIUM, Strain/Indicator: TA100, Metabolic Activation: NONE, Method: PREINCUBATION): inactive; negative
mutagenic call (Test System: AMES SALMONELLA TYPHIMURIUM, Strain/Indicator: TA100, Metabolic Activation: RAT, LIVER, S-9, AROCLOR 1254 (10 OR 30%), Method: PREINCUBATION): inactive; negative
mutagenic call (Test System: AMES SALMONELLA TYPHIMURIUM, Strain/Indicator: TA1535, Metabolic Activation: HAMSTER, LIVER, S-9, AROCLOR 1254 (10 OR 30%), Method: PREINCUBATION): inactive; negative
mutagenic call (Test System: AMES SALMONELLA TYPHIMURIUM, Strain/Indicator: TA1535, Metabolic Activation: NONE, Method: PREINCUBATION): inactive; negative
mutagenic call (Test System: AMES SALMONELLA TYPHIMURIUM, Strain/Indicator: TA1535, Metabolic Activation: RAT, LIVER, S-9, AROCLOR 1254 (10 OR 30%), Method: PREINCUBATION): inactive; negative
